The source made the active and inactive calls. The rule behind the calls is not given here.
Columns and labels:
[1] = molecular target: Cyclin-dependent kinase 5 (Homo sapiens) (UniProt Q00535); assay: Inhibition of CDK5 Lys2 labeling site harbouring NVLHRDLKPQNLLINR in human Huh-7 cell lysate at 1 uM by KiNativ Profiling analysis relative to control; assay type: subcellular
[2] = molecular target: T1, Interleukin-1 receptor-associated kinase 4 (Homo sapiens) (UniProt Q9NWZ3); assay: Inhibition of IRAK4 K2 labeling site in human Huh-7 cells at 1 uM by KiNativ Profiling analysis relative to control; assay type: cell-based
T1 sequence (whole entry): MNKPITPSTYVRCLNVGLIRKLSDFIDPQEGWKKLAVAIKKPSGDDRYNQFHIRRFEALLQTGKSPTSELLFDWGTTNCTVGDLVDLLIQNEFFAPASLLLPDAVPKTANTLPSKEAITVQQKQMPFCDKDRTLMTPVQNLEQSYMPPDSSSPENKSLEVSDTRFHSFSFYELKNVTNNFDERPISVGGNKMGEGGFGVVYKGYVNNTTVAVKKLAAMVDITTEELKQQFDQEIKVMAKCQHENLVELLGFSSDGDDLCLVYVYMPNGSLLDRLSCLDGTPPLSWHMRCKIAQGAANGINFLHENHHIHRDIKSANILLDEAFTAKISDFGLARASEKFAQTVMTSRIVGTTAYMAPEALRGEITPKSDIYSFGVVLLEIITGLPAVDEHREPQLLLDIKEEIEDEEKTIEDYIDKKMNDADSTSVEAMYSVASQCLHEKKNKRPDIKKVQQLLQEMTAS

[3] = molecular target: Ribosomal protein S6 kinase alpha-4 (Homo sapiens) (UniProt O75676); assay: Inhibition of C-terminal RPS6KA4 kinase domain 2 (unknown origin) at 10 uM by Ambit Kinomescan binding assay; values are per cent of control
Ribosomal protein S6 kinase alpha-4 (Homo sapiens), sequence (O75676 whole entry, looked up, the tested form may be a part): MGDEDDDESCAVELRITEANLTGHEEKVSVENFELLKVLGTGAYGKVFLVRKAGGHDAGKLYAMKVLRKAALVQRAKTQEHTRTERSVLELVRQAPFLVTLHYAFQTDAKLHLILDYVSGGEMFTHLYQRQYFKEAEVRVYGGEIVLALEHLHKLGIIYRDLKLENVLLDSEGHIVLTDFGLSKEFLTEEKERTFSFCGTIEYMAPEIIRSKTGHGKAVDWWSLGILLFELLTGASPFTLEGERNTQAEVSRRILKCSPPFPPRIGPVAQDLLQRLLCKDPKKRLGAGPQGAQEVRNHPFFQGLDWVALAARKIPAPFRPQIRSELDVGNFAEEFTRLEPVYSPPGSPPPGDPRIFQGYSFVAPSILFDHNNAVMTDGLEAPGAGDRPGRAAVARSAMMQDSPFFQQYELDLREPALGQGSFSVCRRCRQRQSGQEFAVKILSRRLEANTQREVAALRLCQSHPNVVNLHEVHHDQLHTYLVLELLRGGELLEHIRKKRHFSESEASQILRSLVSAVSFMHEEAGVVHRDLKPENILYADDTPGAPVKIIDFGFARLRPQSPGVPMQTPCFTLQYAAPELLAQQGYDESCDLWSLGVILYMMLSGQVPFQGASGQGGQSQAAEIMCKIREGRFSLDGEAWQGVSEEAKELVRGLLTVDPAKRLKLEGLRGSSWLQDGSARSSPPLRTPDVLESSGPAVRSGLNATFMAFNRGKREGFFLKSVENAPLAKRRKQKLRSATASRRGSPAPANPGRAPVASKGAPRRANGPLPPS

[4] = molecular target: RAC-beta serine/threonine-protein kinase (Homo sapiens) (UniProt P31751); assay: Inhibition of AKT2 (unknown origin) at 10 uM by Ambit Kinomescan binding assay
[5] = molecular target: Serine/threonine-protein kinase 10 (Homo sapiens) (UniProt O94804); assay: Inhibition of LOK K2 labeling site harbouring DLKAGNVLMTLEGDIR in human Huh-7 cells at 10 uM by KiNativ Profiling analysis relative to control; assay type: cell-based
Serine/threonine-protein kinase 10 (Homo sapiens), sequence (O94804 whole entry, looked up): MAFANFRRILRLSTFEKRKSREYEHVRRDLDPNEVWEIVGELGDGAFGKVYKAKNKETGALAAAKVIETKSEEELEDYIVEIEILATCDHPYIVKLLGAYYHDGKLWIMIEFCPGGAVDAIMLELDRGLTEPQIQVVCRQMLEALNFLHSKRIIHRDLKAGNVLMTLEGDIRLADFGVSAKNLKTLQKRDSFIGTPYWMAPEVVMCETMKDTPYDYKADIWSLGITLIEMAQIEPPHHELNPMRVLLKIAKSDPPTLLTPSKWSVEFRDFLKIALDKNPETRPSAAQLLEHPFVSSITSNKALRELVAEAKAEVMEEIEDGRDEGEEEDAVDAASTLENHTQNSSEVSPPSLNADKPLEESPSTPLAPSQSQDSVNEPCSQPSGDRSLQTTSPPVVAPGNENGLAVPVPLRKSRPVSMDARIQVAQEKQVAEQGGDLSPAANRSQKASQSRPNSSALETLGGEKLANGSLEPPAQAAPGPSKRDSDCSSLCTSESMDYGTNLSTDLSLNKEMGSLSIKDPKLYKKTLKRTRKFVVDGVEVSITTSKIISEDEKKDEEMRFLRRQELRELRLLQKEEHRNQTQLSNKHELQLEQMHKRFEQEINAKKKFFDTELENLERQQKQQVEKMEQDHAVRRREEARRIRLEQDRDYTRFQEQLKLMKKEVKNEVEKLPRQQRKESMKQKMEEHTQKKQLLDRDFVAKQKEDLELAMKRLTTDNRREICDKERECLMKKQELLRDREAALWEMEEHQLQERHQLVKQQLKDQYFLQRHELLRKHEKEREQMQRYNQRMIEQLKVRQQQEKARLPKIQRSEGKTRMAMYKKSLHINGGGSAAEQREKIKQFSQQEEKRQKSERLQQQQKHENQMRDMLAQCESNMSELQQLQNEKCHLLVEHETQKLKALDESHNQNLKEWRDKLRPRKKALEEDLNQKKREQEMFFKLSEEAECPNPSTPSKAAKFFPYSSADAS

[6] = molecular target: Cyclin-dependent kinase 17 (Homo sapiens) (UniProt Q00537); assay: Inhibition of PCTK2 (unknown origin) at 10 uM by Ambit Kinomescan binding assay relative to control
[7] = molecular target: Mitogen-activated protein kinase 11 (Homo sapiens) (UniProt Q15759); assay: Inhibition of p38beta (unknown origin) at 10 uM by Ambit Kinomescan binding assay relative to control; values are per cent of control
Mitogen-activated protein kinase 11 (Homo sapiens), sequence (Q15759 whole entry): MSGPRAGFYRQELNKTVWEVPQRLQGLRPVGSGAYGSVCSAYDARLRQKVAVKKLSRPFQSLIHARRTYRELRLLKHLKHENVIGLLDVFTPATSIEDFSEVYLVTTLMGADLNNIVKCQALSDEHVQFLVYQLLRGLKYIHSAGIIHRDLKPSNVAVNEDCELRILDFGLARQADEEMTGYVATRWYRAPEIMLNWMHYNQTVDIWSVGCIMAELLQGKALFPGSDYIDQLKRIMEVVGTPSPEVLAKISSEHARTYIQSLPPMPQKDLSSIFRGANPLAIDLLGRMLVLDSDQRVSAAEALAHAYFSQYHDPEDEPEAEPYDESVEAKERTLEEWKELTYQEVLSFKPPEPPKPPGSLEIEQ

[8] = molecular target: Mitogen-activated protein kinase kinase kinase 4 (Homo sapiens) (UniProt Q9Y6R4); assay: Inhibition of MAP3K4 K2 labeling site in human Huh-7 cells at 1 uM by KiNativ Profiling analysis relative to control; assay type: cell-based
[9] = molecular target: Macrophage-stimulating protein receptor (Homo sapiens) (UniProt Q04912); assay: Inhibition of MST1R (unknown origin) at 1 uM by Ambit Kinomescan binding assay relative to control
Macrophage-stimulating protein receptor (Homo sapiens), sequence (Q04912 25-304 limits assumed): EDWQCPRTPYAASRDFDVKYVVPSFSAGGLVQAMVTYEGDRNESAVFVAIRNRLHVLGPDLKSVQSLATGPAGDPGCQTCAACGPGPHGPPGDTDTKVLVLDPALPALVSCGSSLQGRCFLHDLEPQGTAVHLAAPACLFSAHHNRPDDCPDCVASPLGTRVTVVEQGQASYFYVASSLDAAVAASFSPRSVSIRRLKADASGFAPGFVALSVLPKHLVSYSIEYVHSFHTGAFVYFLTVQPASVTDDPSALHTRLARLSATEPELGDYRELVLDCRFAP
Macrophage-stimulating protein receptor (Homo sapiens), sequence (Q04912 310-1400 limits assumed): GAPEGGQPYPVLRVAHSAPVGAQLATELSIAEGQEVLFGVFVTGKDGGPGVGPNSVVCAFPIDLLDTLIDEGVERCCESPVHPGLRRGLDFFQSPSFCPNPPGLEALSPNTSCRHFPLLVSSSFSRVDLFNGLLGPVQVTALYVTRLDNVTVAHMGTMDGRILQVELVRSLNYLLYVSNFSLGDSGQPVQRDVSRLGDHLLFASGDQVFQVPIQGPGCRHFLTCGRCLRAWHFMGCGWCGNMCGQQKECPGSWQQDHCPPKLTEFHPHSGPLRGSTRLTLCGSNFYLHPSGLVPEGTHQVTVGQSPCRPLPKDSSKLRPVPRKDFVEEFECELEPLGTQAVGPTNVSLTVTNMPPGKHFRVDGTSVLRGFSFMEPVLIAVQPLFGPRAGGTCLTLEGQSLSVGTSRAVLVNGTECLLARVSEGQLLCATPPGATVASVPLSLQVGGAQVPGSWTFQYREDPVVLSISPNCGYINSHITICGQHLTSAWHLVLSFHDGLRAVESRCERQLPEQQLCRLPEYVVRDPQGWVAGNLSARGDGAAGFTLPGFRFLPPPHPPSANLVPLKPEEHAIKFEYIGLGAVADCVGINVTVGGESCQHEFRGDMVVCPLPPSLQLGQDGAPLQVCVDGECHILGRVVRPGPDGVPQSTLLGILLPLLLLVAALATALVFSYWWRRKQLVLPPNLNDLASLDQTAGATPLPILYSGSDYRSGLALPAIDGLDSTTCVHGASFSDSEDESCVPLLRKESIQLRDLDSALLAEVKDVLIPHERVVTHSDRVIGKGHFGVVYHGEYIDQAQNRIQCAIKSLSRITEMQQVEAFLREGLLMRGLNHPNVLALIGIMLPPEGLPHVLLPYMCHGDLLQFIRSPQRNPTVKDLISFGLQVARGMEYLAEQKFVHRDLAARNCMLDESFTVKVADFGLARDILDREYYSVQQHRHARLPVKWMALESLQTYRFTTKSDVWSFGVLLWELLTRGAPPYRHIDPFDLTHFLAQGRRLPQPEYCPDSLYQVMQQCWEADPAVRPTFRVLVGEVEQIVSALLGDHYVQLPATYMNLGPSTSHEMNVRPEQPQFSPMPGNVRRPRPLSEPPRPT

[10] = molecular target: T2, Dual specificity mitogen-activated protein kinase kinase 7 (Homo sapiens) (UniProt O14733); assay: Inhibition of MAP2K7 Lys2 labeling site in human A-375 cells at 5 uM by KiNativ Profiling analysis relative to control; assay type: cell-based
T2 sequence (whole entry): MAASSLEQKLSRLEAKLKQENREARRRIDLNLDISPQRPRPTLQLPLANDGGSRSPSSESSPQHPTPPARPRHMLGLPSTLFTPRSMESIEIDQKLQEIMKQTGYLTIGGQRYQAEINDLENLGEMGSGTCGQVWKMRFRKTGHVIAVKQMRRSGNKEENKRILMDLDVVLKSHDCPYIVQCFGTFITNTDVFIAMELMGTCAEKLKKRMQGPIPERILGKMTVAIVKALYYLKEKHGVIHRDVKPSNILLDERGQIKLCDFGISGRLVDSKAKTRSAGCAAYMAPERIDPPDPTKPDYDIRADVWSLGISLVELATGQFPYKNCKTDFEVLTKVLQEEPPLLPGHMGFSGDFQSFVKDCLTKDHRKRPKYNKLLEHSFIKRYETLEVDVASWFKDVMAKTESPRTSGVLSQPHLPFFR

[11] = molecular target: T3, Phosphatidylinositol 5-phosphate 4-kinase type-2 gamma (Homo sapiens) (UniProt Q8TBX8); assay: Inhibition of PIP4K2C ATP labeling site harbouring VKELPTLKDMDFLNK in human A-375 cells at 5 uM by KiNativ Profiling analysis relative to control; assay type: cell-based
T3 sequence (whole entry): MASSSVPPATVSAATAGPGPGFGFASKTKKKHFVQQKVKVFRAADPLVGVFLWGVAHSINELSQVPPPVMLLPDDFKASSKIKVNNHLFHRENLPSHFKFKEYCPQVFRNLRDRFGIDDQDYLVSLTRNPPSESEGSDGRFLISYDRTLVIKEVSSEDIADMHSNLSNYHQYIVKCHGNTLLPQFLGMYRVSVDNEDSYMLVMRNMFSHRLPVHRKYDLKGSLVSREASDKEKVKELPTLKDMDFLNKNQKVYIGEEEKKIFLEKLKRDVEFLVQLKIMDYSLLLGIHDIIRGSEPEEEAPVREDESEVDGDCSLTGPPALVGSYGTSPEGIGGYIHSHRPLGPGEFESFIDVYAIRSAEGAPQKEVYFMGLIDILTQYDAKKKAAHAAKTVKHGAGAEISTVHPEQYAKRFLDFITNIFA

[12] = molecular target: cAMP-dependent protein kinase catalytic subunit beta (Homo sapiens) (UniProt P22694); assay: Inhibition of PKAC beta (unknown origin) at 1 uM by Ambit Kinomescan binding assay relative to control
[13] = molecular target: Mitogen-activated protein kinase 3 (Homo sapiens) (UniProt P27361); assay: Inhibition of ERK1 (unknown origin) at 1 uM by Ambit Kinomescan binding assay relative to control; values are per cent of control
Mitogen-activated protein kinase 3 (Homo sapiens), sequence (P27361 whole entry): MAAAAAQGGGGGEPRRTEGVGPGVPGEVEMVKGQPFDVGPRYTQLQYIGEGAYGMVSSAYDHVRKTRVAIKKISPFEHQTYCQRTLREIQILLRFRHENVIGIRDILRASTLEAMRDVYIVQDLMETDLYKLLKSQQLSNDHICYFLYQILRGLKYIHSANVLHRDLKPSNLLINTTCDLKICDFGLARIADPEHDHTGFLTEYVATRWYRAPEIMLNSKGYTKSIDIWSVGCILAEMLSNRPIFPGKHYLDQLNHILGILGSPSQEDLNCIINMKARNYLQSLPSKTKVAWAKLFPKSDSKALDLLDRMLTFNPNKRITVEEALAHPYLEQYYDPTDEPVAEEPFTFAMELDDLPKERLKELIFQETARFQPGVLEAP

[14] = system: Epidermal growth factor receptor (Homo sapiens), P00533 [UNDEFINED MUTATION]; assay: Inhibition of EGFR L747/T751del mutant (unknown origin) at 1 uM by Ambit Kinomescan binding assay relative to control
[15] = molecular target: Calcium-dependent protein kinase 1 (Plasmodium falciparum) (UniProt P62344); assay: Inhibition of Plasmodium falciparum PFCDPK1 at 1 uM by Ambit Kinomescan binding assay relative to control; values are per cent of control
Calcium-dependent protein kinase 1 (Plasmodium falciparum), sequence (P62344 2-524 limits assumed): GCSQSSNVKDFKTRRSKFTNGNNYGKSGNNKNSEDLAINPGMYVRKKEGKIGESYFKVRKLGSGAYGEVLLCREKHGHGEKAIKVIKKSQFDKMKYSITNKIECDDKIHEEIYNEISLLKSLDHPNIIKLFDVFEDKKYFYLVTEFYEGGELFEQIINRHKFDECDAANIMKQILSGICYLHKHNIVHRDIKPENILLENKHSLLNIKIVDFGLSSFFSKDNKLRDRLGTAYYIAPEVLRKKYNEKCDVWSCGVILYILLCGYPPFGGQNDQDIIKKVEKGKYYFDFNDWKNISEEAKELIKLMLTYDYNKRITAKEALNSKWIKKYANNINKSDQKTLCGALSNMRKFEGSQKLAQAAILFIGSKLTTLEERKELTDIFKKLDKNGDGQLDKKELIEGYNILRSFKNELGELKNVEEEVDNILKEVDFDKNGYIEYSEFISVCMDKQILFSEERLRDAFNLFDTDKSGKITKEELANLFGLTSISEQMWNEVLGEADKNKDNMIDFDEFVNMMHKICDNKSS

Cyclin-dependent kinase 5 (Homo sapiens), sequence (Q00535 whole entry, looked up): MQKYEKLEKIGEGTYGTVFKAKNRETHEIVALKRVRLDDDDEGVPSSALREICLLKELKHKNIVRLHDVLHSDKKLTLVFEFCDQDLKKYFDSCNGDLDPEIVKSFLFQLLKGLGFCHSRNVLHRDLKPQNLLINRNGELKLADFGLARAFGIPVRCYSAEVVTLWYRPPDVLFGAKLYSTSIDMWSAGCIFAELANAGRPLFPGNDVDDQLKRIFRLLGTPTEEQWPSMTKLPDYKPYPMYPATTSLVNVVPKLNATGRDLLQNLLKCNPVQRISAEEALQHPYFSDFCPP

CNc1cc(Oc2cc(C(=O)Nc3cc(N4CCN(C)CC4)cc(C(F)(F)F)c3)ccc2C)ncn1
inhibition [1]: 22.5%

CCN1CCN(Cc2ccc(NC(=O)c3ccc(C)c(Oc4ccnc5[nH]ccc45)c3)cc2C(F)(F)F)CC1
inhibition [2]: -9.1%
percent of control [3]: 4.7%
inhibition [4]: inactive
inhibition [5]: 13.5%
inhibition [6]: 0.1%
percent of control [7]: 0%
inhibition [8]: -2.3%

CCN1CCN(Cc2ccc(NC(=O)c3ccc(C)c(/C=C/c4cnc5[nH]ccc5c4OC)c3)cc2C(F)(F)F)CC1
inhibition [9]: 81%
inhibition [10]: 57%
inhibition [11]: 8.5%
inhibition [12]: 76%
residual activity [13]: 100%
inhibition [14]: 1.6%
residual activity [15]: 4.3%
